In ChEMBL document CHEMBL1201862, “PubChem BioAssay data set” (2004):
The source made the active and inactive calls.

How the values were obtained:
Streptococcus = assay: GAS UMAA2166 growth inhibition – luminescence, BacTiterGlo, counter-screen for streptokinase expression inhibitor project, dose response (AID 1915); type: functional, organism-based;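 further: potency for reduction of bacterial viability or growth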
[1] = tested on: Streptococcus sp. 'group A'; assay: Streptococcus pyogenes SK(-)GAS viability under kanamycin – luminescence, BacTiterGlo, confirmation, counter-screen for streptokinase expression inhibitor project, dose response (AID 1900); type: functional, organism-based
Streptokinase A = target: T1, Streptokinase A (Streptococcus pyogenes serotype M1, UniProt P10520); assay: viability-normalized secreted streptokinase activity reduction – plasminogen activation absorbance, OD405, dose response (AID 1914); type: functional, Streptococcus pyogenes M1 GAS;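 further: secreted streptokinase activity via plasminogen activation per viability signal from cell pellet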
T1 sequence (P10520 whole entry): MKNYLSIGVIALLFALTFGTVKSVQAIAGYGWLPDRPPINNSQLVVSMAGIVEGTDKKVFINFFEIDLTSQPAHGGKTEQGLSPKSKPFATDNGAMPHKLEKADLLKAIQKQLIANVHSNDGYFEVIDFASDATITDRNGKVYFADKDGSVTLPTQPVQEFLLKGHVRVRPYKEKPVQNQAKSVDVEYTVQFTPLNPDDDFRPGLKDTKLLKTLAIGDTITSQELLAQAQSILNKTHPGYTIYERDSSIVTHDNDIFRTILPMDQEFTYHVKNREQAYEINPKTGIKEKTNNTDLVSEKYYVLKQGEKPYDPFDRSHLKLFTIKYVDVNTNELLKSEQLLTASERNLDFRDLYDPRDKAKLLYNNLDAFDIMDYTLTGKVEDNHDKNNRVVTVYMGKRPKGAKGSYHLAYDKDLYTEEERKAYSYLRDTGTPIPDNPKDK

[2] = target: Low molecular weight phosphotyrosine protein phosphatase (Homo sapiens, UniProt P24666); type: functional; settings: read-out: IC50_Mean;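 further: Dose-response confirmation assay measuring inhibition of LMPTP enzyme activity by fluorescence intensity read-out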
Low molecular weight phosphotyrosine protein phosphatase, sequence (P24666 whole entry): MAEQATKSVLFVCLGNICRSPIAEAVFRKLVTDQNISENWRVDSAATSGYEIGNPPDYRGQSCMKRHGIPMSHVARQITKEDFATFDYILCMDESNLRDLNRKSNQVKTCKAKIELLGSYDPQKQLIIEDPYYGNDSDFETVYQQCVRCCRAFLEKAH

[3] = target: T2, High affinity choline transporter 1 (Homo sapiens, UniProt Q9GZV3); assay: human choline transporter blockers, potency – cell-based, 10-point CRC, membrane potential dye, dose response (AID 588401); type: functional;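 further: membrane potential dye fluorescence of choline-evoked depolarization via CHT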
T2 sequence (Q9GZV3 whole entry): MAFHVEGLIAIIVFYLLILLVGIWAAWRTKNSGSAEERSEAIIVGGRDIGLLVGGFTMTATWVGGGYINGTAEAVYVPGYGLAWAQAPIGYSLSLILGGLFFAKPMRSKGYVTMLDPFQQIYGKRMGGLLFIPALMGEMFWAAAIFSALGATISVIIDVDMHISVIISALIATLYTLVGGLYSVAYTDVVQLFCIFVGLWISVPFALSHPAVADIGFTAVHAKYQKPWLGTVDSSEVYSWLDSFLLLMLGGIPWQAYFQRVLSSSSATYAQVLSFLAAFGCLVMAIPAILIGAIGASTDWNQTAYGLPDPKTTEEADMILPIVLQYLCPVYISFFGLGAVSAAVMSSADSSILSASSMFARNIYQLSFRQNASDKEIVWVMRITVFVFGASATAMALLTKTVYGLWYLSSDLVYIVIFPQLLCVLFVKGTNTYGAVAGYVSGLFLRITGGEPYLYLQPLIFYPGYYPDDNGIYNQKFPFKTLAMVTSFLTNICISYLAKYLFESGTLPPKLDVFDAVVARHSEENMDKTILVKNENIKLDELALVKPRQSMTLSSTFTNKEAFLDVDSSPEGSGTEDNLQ

[4] = target: T2, High affinity choline transporter 1; assay: human choline transporter blockers, potency – cell-based, 5-point CRC, membrane potential dye, dose response (AID 504840); type: functional
Prothrombin = Prothrombin (Bos taurus, UniProt P00735); assay: thrombin protease inhibitors – biochemical, fluorescence polarization, uHTS hits, dose response (AID 602369); type: functional
[5] = target: 72 kDa type IV collagenase (Homo sapiens, UniProt P08253); assay: Dose Response validation of uHTS RPN11 inhibitor hits using a MMP-2 Fluorescence assay.; type: functional
72 kDa type IV collagenase, sequence (P08253 whole entry): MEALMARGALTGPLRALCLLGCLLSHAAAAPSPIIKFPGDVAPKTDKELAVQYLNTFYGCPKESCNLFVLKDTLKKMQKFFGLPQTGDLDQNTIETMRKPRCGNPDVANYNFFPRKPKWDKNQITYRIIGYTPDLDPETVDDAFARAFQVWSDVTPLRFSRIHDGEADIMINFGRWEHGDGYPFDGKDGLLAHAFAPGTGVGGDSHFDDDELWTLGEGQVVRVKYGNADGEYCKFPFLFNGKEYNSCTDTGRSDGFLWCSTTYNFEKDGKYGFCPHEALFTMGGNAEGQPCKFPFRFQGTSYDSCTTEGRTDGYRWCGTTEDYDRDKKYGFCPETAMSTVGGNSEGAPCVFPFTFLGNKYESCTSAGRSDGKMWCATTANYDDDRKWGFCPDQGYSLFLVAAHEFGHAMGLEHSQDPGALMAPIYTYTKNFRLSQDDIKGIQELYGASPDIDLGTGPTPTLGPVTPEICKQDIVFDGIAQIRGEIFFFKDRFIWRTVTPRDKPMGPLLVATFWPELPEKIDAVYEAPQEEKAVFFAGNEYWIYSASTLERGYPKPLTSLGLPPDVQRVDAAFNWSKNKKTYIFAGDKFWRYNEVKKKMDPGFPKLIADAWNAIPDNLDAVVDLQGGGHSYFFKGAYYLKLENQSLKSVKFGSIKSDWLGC

[6] = target: 26S proteasome non-ATPase regulatory subunit 14 (Homo sapiens, UniProt O00487); assay: inhibition of proteasome subunit RPN11 – biochemical, fluorescence polarization, uHTS hits, confirmation (AID 602368); type: functional
26S proteasome non-ATPase regulatory subunit 14, sequence (O00487 whole entry): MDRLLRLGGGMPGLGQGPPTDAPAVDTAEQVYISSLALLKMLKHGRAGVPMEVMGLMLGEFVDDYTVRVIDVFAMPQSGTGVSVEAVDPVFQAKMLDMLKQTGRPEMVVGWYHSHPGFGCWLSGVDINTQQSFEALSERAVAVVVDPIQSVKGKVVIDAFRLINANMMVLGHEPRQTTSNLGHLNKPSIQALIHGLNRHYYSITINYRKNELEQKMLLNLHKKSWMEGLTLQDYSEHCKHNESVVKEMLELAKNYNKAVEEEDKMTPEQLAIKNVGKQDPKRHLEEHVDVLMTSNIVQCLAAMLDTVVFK

[7] = target: Potassium voltage-gated channel subfamily KQT member 2 (Rattus norvegicus, UniProt O88943); assay: blockers of KCNQ2 channel current – cell-based, automated electrophysiology, set II, rat KCNQ2, dose response (AID 588637); type: functional
Escherichia coli [8] = assay: microbe, parasite or virus in culture
Caspase-3 = target: T3, Caspase-3 (Homo sapiens, UniProt P42574); type: functional;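 further: Dose-response selectivity test against caspase-3 for candidate inhibitors of sentrin-specific proteases (SENPs)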
T3 sequence (P42574 whole entry): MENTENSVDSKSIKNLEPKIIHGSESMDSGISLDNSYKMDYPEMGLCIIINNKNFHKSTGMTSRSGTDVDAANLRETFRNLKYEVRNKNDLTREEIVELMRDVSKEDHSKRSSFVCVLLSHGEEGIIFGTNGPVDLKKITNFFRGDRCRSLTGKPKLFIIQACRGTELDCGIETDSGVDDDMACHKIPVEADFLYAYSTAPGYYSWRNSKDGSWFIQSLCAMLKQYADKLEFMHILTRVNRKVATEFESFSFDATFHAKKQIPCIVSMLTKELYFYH

[9] = target: T4, Sentrin-specific protease 8 (Homo sapiens, UniProt Q96LD8); type: functional;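 further: luminescence read-out of SENP8 inhibition, dose-response confirmation following an ultra-high-throughput screen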
T4 sequence (Q96LD8 whole entry): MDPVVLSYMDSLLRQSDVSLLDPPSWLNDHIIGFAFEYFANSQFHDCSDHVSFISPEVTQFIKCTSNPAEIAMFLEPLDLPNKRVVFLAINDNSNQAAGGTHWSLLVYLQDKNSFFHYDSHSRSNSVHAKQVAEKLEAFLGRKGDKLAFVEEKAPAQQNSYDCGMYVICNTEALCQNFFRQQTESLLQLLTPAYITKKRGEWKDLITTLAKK

[10] = target: Sentrin-specific protease 7 (Homo sapiens, UniProt Q9BQF6); type: functional;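 further: Luminescence-based dose-response confirmation of ultra-high-throughput screening hits, measuring inhibition of SENP7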
Sentrin-specific protease 7, sequence (Q9BQF6 whole entry): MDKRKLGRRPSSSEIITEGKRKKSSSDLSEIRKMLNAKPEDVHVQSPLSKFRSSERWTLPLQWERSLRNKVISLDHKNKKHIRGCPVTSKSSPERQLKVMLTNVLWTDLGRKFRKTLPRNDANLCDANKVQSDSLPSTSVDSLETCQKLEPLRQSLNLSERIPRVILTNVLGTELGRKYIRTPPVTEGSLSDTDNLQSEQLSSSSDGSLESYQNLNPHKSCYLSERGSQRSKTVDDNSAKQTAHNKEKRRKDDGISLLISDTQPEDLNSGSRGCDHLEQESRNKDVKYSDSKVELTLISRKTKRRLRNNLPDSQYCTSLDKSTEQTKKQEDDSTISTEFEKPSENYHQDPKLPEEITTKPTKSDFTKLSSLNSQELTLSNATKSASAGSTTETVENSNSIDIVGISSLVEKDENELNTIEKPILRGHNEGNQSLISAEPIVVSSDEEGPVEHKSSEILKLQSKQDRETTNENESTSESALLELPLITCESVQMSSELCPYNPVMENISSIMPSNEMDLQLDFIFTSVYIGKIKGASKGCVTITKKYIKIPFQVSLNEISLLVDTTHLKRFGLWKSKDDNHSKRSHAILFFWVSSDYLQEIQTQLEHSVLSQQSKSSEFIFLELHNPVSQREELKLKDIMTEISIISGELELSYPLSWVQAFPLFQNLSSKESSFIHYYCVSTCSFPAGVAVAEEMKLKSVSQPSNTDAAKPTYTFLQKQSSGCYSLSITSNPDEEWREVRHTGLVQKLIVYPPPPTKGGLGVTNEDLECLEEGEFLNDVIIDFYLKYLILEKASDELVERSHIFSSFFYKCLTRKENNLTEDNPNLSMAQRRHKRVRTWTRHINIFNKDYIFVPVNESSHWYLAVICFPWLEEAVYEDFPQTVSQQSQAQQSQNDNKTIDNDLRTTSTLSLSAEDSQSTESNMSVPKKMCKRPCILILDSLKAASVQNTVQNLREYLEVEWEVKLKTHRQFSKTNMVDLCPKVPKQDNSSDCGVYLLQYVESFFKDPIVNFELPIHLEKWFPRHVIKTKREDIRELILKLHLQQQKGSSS

[11] = target: Sentrin-specific protease 6 (Homo sapiens, UniProt Q9GZR1); type: functional;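 further: Luminescence-based dose-response confirmatory assay of SENP6 inhibition, following up an ultra-high-throughput screen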
Sentrin-specific protease 6, sequence (Q9GZR1 whole entry, the tested form may be a part): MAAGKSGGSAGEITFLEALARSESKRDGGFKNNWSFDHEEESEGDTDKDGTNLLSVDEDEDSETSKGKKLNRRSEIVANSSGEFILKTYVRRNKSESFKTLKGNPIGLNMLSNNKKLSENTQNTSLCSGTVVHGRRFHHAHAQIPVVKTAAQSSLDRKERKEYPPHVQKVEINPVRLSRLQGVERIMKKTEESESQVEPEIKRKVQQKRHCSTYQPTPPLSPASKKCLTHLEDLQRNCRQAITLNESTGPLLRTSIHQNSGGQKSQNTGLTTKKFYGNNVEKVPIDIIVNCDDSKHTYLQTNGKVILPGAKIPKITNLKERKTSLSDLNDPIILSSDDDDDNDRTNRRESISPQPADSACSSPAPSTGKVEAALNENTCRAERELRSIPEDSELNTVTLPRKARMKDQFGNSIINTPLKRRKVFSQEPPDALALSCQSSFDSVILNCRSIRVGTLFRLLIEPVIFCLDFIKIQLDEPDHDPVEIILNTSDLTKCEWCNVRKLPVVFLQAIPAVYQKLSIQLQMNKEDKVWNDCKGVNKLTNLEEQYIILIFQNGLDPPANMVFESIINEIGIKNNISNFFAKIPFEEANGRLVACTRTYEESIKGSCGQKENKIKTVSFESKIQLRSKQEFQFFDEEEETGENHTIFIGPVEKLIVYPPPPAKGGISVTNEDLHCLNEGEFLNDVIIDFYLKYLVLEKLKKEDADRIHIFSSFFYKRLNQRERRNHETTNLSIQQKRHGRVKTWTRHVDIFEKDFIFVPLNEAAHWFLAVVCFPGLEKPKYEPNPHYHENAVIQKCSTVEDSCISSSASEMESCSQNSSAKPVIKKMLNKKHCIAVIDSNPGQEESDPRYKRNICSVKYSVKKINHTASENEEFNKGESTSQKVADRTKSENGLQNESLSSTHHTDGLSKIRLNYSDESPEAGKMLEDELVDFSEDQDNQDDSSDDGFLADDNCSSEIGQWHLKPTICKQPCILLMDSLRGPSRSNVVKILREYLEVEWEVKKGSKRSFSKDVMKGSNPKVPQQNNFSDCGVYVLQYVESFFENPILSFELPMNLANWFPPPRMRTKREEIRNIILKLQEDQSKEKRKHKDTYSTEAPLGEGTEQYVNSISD

[12] = blockers of HIV-1 ZM109 envelope-driven cell-cell fusion – HeLa effector, CEM target cells, luciferase, cherry-pick, dose response (AID 652058); type: functional, cell-based;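 further: luciferase signal from HIV-1 Env mediated cell-cell fusion of effector and target cells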
[13] = inhibition of Env-driven cell fusion – HIV entry, plate reader, dry powder, dose response (AID 687023); type: functional, cell-based
Phospholipase A2 = Phospholipase A2 (Homo sapiens, UniProt P04054); type: functional;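 further: confirmatory dose-response counterscreen on phospholipase A2, testing hits that came from an ultra-high-throughput screen for ATG4B inhibitors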
Phospholipase A2, sequence (P04054 whole entry, the tested form may be a part): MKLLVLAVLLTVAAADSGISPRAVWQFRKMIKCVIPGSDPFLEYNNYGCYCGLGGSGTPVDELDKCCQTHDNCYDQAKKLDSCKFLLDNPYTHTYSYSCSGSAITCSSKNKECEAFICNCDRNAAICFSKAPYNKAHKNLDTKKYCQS

[14] = blockers of HIV-1 envelope-mediated cell-cell fusion – cherry-pick, dose response (AID 652057); type: functional, cell-based
[15] = HIV-1 AD8 envelope cell-cell fusion blockers – cherry-pick, dose response (AID 652062); type: functional, cell-based;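 further: luciferase signal from cell-cell fusion driven by HIV-1 clade B AD8 Env; potency is for inhibitors of fusion seen as a drop in luminescence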
Cysteine protease ATG4B = Cysteine protease ATG4B (Homo sapiens, UniProt Q9Y4P1); type: functional;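 further: Fluorescence-based dose-response confirmation assay measuring inhibition of ATG4B activity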
Cysteine protease ATG4B, sequence (Q9Y4P1 whole entry): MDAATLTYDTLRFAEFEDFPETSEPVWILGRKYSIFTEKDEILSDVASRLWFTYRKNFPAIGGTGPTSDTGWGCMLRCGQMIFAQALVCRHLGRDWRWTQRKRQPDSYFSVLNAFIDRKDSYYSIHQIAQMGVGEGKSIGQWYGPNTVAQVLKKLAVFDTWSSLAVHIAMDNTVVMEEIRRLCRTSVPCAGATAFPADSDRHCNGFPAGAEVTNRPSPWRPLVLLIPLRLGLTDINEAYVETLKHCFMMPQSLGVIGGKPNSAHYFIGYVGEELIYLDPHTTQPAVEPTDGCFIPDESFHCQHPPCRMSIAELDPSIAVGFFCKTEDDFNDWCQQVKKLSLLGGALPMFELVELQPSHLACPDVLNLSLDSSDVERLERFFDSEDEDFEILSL

[16] = viability loss in CEM21 cells – cell-based, plate reader, dry powder, cytotoxicity control, dose response (AID 687026); type: functional
[17] = Luminescence Cell-Based Dose Retest to Confirm Inhibitors of Cancer Stem Cells. [Related pubchem assays (depositor defined):AID2717, AID2721]; type: functional; settings: Homo sapiens
[18] = target: 5-hydroxytryptamine receptor 5A (Homo sapiens, UniProt P47898); assay: Counterscreen for agonists of OPRM1-OPRD1 heterodimerization: luminescence-based cell-based high throughput dose response assay to identify agonists of 5-hydroxytryptamine (serotonin) 5A receptor (HTR5A). [Related pubchem assays (depositor defined):AID504326, AID504355, AID504692, AID504904, AID504905]; type: functional
5-hydroxytryptamine receptor 5A, sequence (P47898 whole entry): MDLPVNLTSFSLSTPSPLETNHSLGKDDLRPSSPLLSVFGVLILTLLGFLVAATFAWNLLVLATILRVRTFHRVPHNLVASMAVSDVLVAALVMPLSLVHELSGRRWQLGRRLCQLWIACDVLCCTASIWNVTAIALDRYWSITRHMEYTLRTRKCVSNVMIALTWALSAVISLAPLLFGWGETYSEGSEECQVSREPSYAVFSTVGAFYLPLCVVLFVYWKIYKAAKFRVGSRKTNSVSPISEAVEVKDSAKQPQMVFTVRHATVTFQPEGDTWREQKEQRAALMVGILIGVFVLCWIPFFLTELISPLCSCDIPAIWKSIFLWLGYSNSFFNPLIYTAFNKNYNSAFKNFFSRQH

[19] = target: T5, Corticotropin-releasing factor receptor 2/Corticotropin-releasing factor-binding protein (Homo sapiens, UniProt P24387+Q13324); assay: activators of CRF receptor 2 with binding protein – uHTS hits, confirmation (AID 602473); type: functional; settings: read-out: EC50_Mean
T5 sequence (Q13324 whole entry): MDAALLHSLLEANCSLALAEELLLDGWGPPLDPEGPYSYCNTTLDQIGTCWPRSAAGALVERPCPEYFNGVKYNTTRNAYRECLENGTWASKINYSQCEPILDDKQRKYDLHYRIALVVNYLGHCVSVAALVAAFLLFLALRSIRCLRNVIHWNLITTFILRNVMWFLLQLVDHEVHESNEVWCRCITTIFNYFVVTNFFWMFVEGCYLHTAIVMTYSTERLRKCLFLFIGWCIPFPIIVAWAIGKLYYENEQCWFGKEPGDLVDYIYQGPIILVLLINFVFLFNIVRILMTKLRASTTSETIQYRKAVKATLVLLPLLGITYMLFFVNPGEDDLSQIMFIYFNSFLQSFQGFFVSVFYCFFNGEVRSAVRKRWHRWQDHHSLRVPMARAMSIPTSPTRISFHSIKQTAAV
T5 sequence (P24387 whole entry): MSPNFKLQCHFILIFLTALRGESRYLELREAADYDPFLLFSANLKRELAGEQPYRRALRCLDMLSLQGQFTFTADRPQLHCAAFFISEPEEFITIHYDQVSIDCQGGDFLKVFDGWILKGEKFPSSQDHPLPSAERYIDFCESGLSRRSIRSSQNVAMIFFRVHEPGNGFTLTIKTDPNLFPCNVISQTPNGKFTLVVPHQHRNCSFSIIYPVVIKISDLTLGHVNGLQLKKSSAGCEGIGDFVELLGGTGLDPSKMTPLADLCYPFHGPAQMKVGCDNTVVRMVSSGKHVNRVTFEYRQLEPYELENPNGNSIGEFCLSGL

[20] = target: Delta-type opioid receptor (Homo sapiens, UniProt P41143); assay: Counterscreen for agonists of heterodimerization of the mu 1 (OPRM1) and delta 1 (OPRD1) opioid receptors: Luminescence-based cell-based high throughput dose response assay to identify agonists of OPRD1 homodimerization. [Related pubchem assays (depositor defined):AID504326, AID504355, AID504692, AID504904, AID504905]; type: functional
Delta-type opioid receptor, sequence (P41143 whole entry): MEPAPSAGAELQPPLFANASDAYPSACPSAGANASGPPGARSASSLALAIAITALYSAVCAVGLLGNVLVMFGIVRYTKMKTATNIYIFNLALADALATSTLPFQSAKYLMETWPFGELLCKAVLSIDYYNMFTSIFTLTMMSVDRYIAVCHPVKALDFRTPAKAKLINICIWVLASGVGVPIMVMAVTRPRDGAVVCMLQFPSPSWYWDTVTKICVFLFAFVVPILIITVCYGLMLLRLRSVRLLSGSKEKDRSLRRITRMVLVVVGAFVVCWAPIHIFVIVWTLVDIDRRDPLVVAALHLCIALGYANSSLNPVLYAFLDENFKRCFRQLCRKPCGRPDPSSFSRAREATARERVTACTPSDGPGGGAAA

Mu-type opioid receptor = Mu-type opioid receptor (Homo sapiens, UniProt P35372); assay: Counterscreen for agonists of heterodimerization of the mu 1 (OPRM1) and delta 1 (OPRD1) opioid receptors: Luminescence-based cell-based high throughput dose response assay to identify agonists of OPRM1 homodimerization.; type: functional;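 further: U2OS cells expressing OPRM1 and beta-arrestin as split beta-galactosidase partners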
Mu-type opioid receptor, sequence (P35372 whole entry): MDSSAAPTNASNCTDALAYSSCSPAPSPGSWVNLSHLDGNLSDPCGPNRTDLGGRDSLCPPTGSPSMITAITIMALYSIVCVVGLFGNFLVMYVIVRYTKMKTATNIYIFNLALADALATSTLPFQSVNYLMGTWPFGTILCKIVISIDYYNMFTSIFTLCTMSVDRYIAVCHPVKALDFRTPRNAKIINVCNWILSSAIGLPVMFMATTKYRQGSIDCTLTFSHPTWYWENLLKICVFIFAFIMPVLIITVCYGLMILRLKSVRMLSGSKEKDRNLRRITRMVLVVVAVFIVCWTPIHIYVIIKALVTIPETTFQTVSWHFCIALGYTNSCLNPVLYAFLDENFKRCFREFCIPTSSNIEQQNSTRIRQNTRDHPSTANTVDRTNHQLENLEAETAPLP

[21] = target: DNA (cytosine-5)-methyltransferase 1 (Homo sapiens, UniProt P26358); assay: inhibition of DNA methylation by DNMT1 – biochemical, fluorescent molecular beacon, confirmation (AID 602386); type: functional
Escherichia coli [22] = assay: microbe, parasite or virus in culture; remark: listed apart in the source
[23] = target: Ras and Rab interactor 1/Tyrosine-protein kinase ABL1 (Homo sapiens, UniProt P00519+Q13671); type: functional;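 further: biochemical TR-FRET dose-response test measuring inhibition of binding between Rin1 and Abl proteins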
[24] = target: Apoptotic protease-activating factor 1 (Homo sapiens, UniProt O14727); assay: SAR analysis of small molecule Activators of Apaf-1 in a Fluorescent assay.; type: functional; settings: read-out: EC50_Mean;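 further: caspase-3 cleavage of fluorogenic Rh110 DEVD substrate downstream of apoptosome activation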
[25] = viability of PTEN-deleted HCT116 cells – cell-based, HCT116 PTEN knockout, dose response (AID 1047); type: functional;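 further: HCT116 colon tumor cells with PTEN knocked out; cells exposed to compound for 60 hours before readout; potency for loss of cell viability measured by luminescence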
[26] = viability of HCT116 lacking mutant beta-catenin – cell-based, human colon tumor, dose response (AID 1045); type: functional;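 further: HCT116 colon tumor cells with beta catenin knocked out; cells exposed to compound for 60 hours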

## CCn1cc(C(=O)O)c(=O)c2cc(F)c(N3CCN(C(=S)NC(=O)c4cc(OC)cc(OC)c4)CC3)cc21
Streptococcus
  EC50: 30.2 µM (active)
[1]
  EC50: 2.89 µM (active)
Streptokinase A
  EC50: > 150 µM (not active)
[2]
  IC50: 1.47 µM (active)

## CCN(CC)CCCNC(=O)c1cn(CC)c2ccc(S(=O)(=O)N3CCc4ccccc4C3)cc2c1=O
[3]
  IC50: 2.67 µM (active)
[4]
  IC50: 4.17 µM (active)

## COC(=O)c1sc2nc(CSc3ccc(Br)cc3)[nH]c(=O)c2c1C
Prothrombin
  IC50: 30 µM (active)
[5]
  IC50: > 100 µM (inactive)
[6]
  IC50: 26.6 µM (active)

## CN(C)S(=O)(=O)c1ccc(N2CCCC2)c(C(=O)NNC(=O)c2ccc(Br)cc2)c1
[7]
  IC50: 3.72 µM (active)

## CN(C/C=C/c1ccccc1[N+](=O)[O-])Cc1ccccc1
Escherichia coli [8]
  AC50: 42.7 µM (active)

## Cc1ccccc1-c1nnc(SCc2ccccc2F)o1
Caspase-3
  IC50: 29.1 µM (active)
[9]
  IC50: 45.1 µM (active)
[10]
  IC50: 6.14 µM (active)
[11]
  IC50: 21.9 µM (active)

## Cc1nnsc1NC(=O)OCc1ccccc1Cl
Caspase-3
  IC50: 21.4 µM (active)
[9]
  IC50: 52.7 µM (active)
[10]
  IC50: 13 µM (active)
[11]
  IC50: 45.6 µM (active)

## CCOc1ccc(C(=O)C2CCN(CC(=O)Nc3ccccc3N3CCOCC3)CC2)cc1
[12]
  AC50: 10.8 µM (active)
[13]
  AC50: 10.4 µM (active)
Phospholipase A2
  IC50: 11.9 µM (active)
[14]
  AC50: 3.34 µM (active)
[15]
  AC50: 0.94 µM (active)
Cysteine protease ATG4B
  IC50: 13.2 µM (active)
[16]
  AC50: > 70 µM (inactive)

## COc1ccc(NS(=O)(=O)c2ccc(O)c(NC(=O)c3cc4c(C)nn(-c5ccc(F)cc5)c4s3)c2)cc1
[17]
  AC50: 2.11 µM (active)
[18]
  EC50: > 92.5 µM (inactive)
[19]
  EC50: > 53 µM (inactive)
[20]
  EC50: > 92.5 µM (inactive)
Mu-type opioid receptor
  EC50: > 92.5 µM (inactive)
[21]
  IC50: 6.92 µM (active)

## CCN(CC)CCCNC(=O)c1ccccc1NC(=O)C1=CSCCO1
[3]
  IC50: 3.57 µM (active)
[4]
  IC50: 4.48 µM (active)

## CN(C)CCCN/C=C1\C(=O)NC(=O)N(CCc2ccccc2)C1=O
Prothrombin
  IC50: 35.1 µM (active)
[5]
  IC50: > 100 µM (inactive)
[6]
  IC50: 28.7 µM (active)

## CCc1ccccc1NC(=O)CNC1CCCCC1.[O-][Cl+3]([O-])([O-])O
Escherichia coli [8]
  AC50: 76.7 µM (active)
Escherichia coli [22]
  AC50: 22.6 µM (active)

## CCOC(=O)CCCCCC(=O)Nc1ccc2c(c1)CC(=O)N([C@H](C)CO)C[C@@H](C)[C@H](CN(C)Cc1ccc3c(c1)OCO3)O2
[23]
  IC50: 30.8 µM (inactive)

## CCCCCCC1CC(Cc2c(C)[nH]c3ccccc23)C(=O)O1 (stereo not drawn)
[24]
  EC50: > 100 µM (inactive)

## COc1ccc2[nH]c3c(=O)n(/N=C/[C@H]4C(C)C=C(C)CC4C)c(=O)[nH]c3c2c1 (stereo partly drawn)
[18]
  EC50: > 92.5 µM (inactive)
[20]
  EC50: > 92.5 µM (inactive)
[25]
  EC50: 30.5 µM (active)
[26]
  EC50: 35.4 µM (active)
Mu-type opioid receptor
  EC50: > 92.5 µM (inactive)

## O=C(O)c1cc(N/N=C2/CC(c3ccccc3)Oc3ccccc32)ccc1Cl (stereo not drawn)
Phospholipase A2
  IC50: 7.77 µM (active)
Cysteine protease ATG4B
  IC50: 7.53 µM (active)
